Biological target: T1, human NPY Y5 receptor (Homo sapiens, UniProt Q15761)
T1 construct: expressed in transfected cells
T1 sequence (Q15761 1-445): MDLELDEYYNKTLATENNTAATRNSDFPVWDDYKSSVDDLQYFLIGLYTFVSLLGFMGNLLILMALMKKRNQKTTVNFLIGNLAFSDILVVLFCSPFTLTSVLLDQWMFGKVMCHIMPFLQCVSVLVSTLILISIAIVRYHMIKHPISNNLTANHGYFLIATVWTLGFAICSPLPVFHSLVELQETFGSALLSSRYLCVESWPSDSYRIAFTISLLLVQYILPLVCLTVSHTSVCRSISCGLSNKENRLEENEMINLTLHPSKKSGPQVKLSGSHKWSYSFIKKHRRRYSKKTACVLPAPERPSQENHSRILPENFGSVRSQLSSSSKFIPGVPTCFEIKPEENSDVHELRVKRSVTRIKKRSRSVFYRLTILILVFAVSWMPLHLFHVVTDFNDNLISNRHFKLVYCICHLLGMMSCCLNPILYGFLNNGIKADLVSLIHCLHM
Experiment: test of inhibition of NPY binding ([125I] peptide YY binding to membranes of NPY Y5 receptor-expressing cells)
Settings: [125I] peptide YY 20,000 cpm, 25° C., 2 hours, pH 7.4; membranes of transfected COS-7, CHO or LM(tk-) cells; read-out: concentration needed to inhibit 50% of the specific binding to the peptide YY (IC50 value)
Description: cDNA Sequence encoding a human NPY Y5 receptor [International Publication WO 96/16542] was cloned into expression vectors pcDNA3, pRc/RSV (manufactured by Invitrogen) and pCI-neo (manufactured by Promega). Using the cationic lipid method [see Proceedings of the National Academy of Science of the United States of America, vol.84, p.7413 (1987)], host cells COS-7, CHO and LM(tk-) (American Type Culture Collection) were transfected with the thus prepared expression vectors to obtain cells in which the NPY Y5 receptor had been expressed.
Each of the membrane preparations thus prepared from the cells in which the NPY Y5 receptor had been expressed was incubated together with each compound to be tested and 20,000 cpm of [^125 I,] peptide YY (manufactured by Amersham) at 25° C. for 2 hours in an assay buffer solution (25 mM HEPES buffer, pH 7.4, containing 10 mM magnesium chloride, 1 mM phenylmethylsulfonyl fluoride and 0.1% bacitracin) and then, the reaction mixture was filtered through a glass filter GF/C. After washing with 50 mM Tris buffer, pH 7.4, containing 0.3% BSA, radioactivity on the glass filter was measured using a gamma counter. […]

- IC50: 8.3 nM
SMILES: COc1ccc(-c2cc(NC(=O)Cc3ccc4ccccc4c3)[nH]n2)cc1OC [Example 6]

Source: patent US6180653A, “Aminopyrazole derivatives” (Banyu Pharmaceutical Co., Ltd., priority 1996, dated 2001)
